Laboratory results as given in patent publication US10294202B2, “Pyrrolidinones as herbicides” (FMC Corporation, priority 2013, dated 2019).

Experiments:
barnyardgrass [1] = assay: Test A pre-/postemergence herbicide test; format: in vivo, Echinochloa crus-galli
Procedure, shortened: (§1)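 Formulated compound (non-phytotoxic solvent, surfactant) sprayed pre- onto soil of seeded loam/sand pots or post- onto seedlings at 1–2 leaves; ~10 d greenhouse; 0–100 visual control rating versus untreated.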

giant foxtail = assay: Test A pre-/postemergence herbicide test; format: in vivo, Setaria faberii
Procedure, shortened: as §1

pigweed = assay: Test A pre-/postemergence herbicide test; format: in vivo, Amaranthus retroflexus
Procedure, shortened: as §1

galium = assay: Test C pre-/postemergence herbicide test; format: in vivo, Galium aparine
Procedure, shortened: (§2)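 Compound solutions contained surfactant in a non-phytotoxic solvent. These were sprayed onto pots of loam/sand sown with seeds, and onto young plants (2 to 18 cm, 1- to 4-leaf) in sphagnum peat–vermiculite mix. Visual injury scores (0 none, 100 complete control) were recorded after 13 to 15 days.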

crabgrass, large = assay: Test C pre-/postemergence herbicide test; format: in vivo, Digitaria sanguinalis
Procedure, shortened: as §2

foxtail, giant = assay: Test C pre-/postemergence herbicide test; format: in vivo, Setaria faberii
Procedure, shortened: as §2

lambsquarters = assay: Test C pre-/postemergence herbicide test; format: in vivo, Chenopodium album
Procedure, shortened: as §2

morningglory = assay: Test C pre-/postemergence herbicide test; format: in vivo, Ipomoea coccinea
Procedure, shortened: as §2

barnyardgrass [2] = assay: Test C pre-/postemergence herbicide test; format: in vivo, Echinochloa crus-galli
Procedure, shortened: as §2

waterhemp = assay: Test C pre-/postemergence herbicide test; format: in vivo, Amaranthus rudis
Procedure, shortened: as §2

oat, wild = assay: Test C pre-/postemergence herbicide test; format: in vivo, Avena fatua; conditions: Postemergence
Procedure, shortened: as §2

velvetleaf = assay: Test C pre-/postemergence herbicide test; format: in vivo, Abutilon theophrasti
Procedure, shortened: as §2

[3] = Postemergence, 125 g ai/ha, 0 to 100 scale, 0 is no effect, 100 is complete control
[4] = Postemergence, 500 g ai/ha, 0 to 100 scale (0 no effect, 100 complete control)
[5] = Preemergence, 125 g ai/ha, 0 to 100 scale where 0 is no effect and 100 is complete control
[6] = preemergence, 500 g ai/ha, 0 to 100 scale, 0 is no effect and 100 is complete control
[7] = Postemergence, 31 g ai/ha, scale 0 to 100 (0 no effect, 100 complete control)
[8] = Postemergence, 62 g ai/ha, scale 0 (no effect) to 100 (complete control)
[9] = Postemergence, 125 g ai/ha, scale 0 to 100 (0 no effect, 100 complete control)
[10] = Postemergence, 250 g ai/ha, scale 0 to 100 (0 no effect, 100 complete control)
[11] = Preemergence, 31 g ai/ha, scale 0 to 100, 0 is no effect and 100 is complete control
[12] = Preemergence, 62 g ai/ha, scale 0 to 100 (0 no effect, 100 complete control)
[13] = Preemergence, 125 g ai/ha, scale 0 to 100 (0 no effect, 100 complete control)

## O=C1NCC(c2cccc(Cl)c2)C1C(=O)Nc1cccc(F)c1F (racemic) [Compound 275]
Barnyardgrass [1]; [3]
  Plant response rating, Barnyardgrass: 90
Barnyardgrass [1]; [4]
  Plant response rating, Barnyardgrass: 90
Barnyardgrass [1]; [5]
  Plant response rating, Barnyardgrass: 90
Barnyardgrass [1]; [6]
  Plant response rating, Barnyardgrass: 90
Giant foxtail; [3]
  Plant response rating, Foxtail, Giant: 90
Giant foxtail; [4]
  Plant response rating, Foxtail, Giant: 90
Giant foxtail; [5]
  Plant response rating, Foxtail, Giant: 90
Giant foxtail; [6]
  Plant response rating, Foxtail, Giant: 90
pigweed; Postemergence, 125 g ai/ha, visual rating on 0 to 100 scale (0 no effect, 100 complete control), approx. 10 days
  Plant response rating, Pigweed: 30
pigweed; [4]
  Plant response rating, Pigweed: 40
pigweed; [5]
  Plant response rating, Pigweed: 20
pigweed; [6]
  Plant response rating, Pigweed: 30
galium; [7]
  Plant response rating, Galium: 50
galium; [8]
  Plant response rating, Galium: 55
galium; [9]
  Plant response rating, Galium: 75
galium; [10]
  Plant response rating, Galium: 80
galium; [11]
  Galium plant response rating: 0
galium; [12]
  Galium plant response rating: 90
galium; [13]
  Plant response rating, Galium: 30
galium; Preemergence, 250 g ai/ha
  Plant response rating (scale of 0 to 100), Galium: 85
crabgrass, large; [7]
  Plant response rating, Crabgrass, Large: 15
crabgrass, large; [8]
  Plant response rating, Crabgrass, Large: 40
crabgrass, large; [9]
  Plant response rating, Crabgrass, Large: 65
crabgrass, large; [10]
  Plant response rating, Crabgrass, Large: 85
crabgrass, large; [11]
  Crabgrass, Large plant response rating: 90
crabgrass, large; [12]
  Crabgrass, Large plant response rating: 95
crabgrass, large; [13]
  Plant response rating, Crabgrass, Large: 100
crabgrass, large; Preemergence, 250 g ai/ha
  Plant response rating (scale of 0 to 100), Crabgrass, Large: 100
foxtail, giant; [7]
  Plant response rating, Foxtail, Giant: 10
foxtail, giant; [8]
  Plant response rating, Foxtail, Giant: 75
foxtail, giant; [9]
  Plant response rating, Foxtail, Giant: 35
foxtail, giant; [10]
  Plant response rating, Foxtail, Giant: 90
foxtail, giant; [11]
  Foxtail, Giant plant response rating: 90
foxtail, giant; [12]
  Foxtail, Giant plant response rating: 95
foxtail, giant; [13]
  Plant response rating, Foxtail, Giant: 98
foxtail, giant; Preemergence, 250 g ai/ha
  Plant response rating (scale of 0 to 100), Foxtail, Giant: 100
lambsquarters; [7]
  Plant response rating, Lambsquarters: 10
lambsquarters; [8]
  Plant response rating, Lambsquarters: 60
lambsquarters; [9]
  Plant response rating, Lambsquarters: 75
lambsquarters; [10]
  Plant response rating, Lambsquarters: 75
lambsquarters; [11]
  Lambsquarters plant response rating: 70
lambsquarters; [12]
  Lambsquarters plant response rating: 75
lambsquarters; [13]
  Plant response rating, Lambsquarters: 85
lambsquarters; Preemergence, 250 g ai/ha
  Plant response rating (scale of 0 to 100), Lambsquarters: 98
morningglory; [7]
  Plant response rating, Morningglory: 10
morningglory; [8]
  Plant response rating, Morningglory: 10
morningglory; [9]
  Plant response rating, Morningglory: 20
morningglory; [10]
  Plant response rating, Morningglory: 20
morningglory; [11]
  Morningglory plant response rating: 0
morningglory; [12]
  Morningglory plant response rating: 0
morningglory; [13]
  Plant response rating, Morningglory: 0
morningglory; Preemergence, 250 g ai/ha
  Plant response rating (scale of 0 to 100), Morningglory: 50
Barnyardgrass [2]; [7]
  Plant response rating, Barnyardgrass: 30
Barnyardgrass [2]; [8]
  Plant response rating, Barnyardgrass: 60
Barnyardgrass [2]; [9]
  Plant response rating, Barnyardgrass: 75
Barnyardgrass [2]; [10]
  Plant response rating, Barnyardgrass: 85
Barnyardgrass [2]; [11]
  Barnyardgrass plant response rating: 80
Barnyardgrass [2]; [12]
  Barnyardgrass plant response rating: 95
Barnyardgrass [2]; [13]
  Plant response rating, Barnyardgrass: 95
Barnyardgrass [2]; Preemergence, 250 g ai/ha
  Plant response rating (scale of 0 to 100; 0 is no effect, 100 is complete control), Barnyardgrass: 98
waterhemp; [7]
  Plant response rating, Waterhemp: 0
waterhemp; [8]
  Plant response rating, Waterhemp: 0
waterhemp; [9]
  Plant response rating, Waterhemp: 0
waterhemp; [10]
  Plant response rating, Waterhemp: 20
waterhemp; [11]
  Waterhemp plant response rating: 0
waterhemp; [12]
  Waterhemp plant response rating: 0
waterhemp; [13]
  Plant response rating, Waterhemp: 15
waterhemp; Preemergence, 250 g ai/ha
  Plant response rating (scale of 0 to 100), Waterhemp: 60
oat, wild; 31 g ai/ha, scale 0 to 100 (0 no effect, 100 complete control)
  Plant response rating, Oat, Wild: 0
oat, wild; 62 g ai/ha, scale 0 (no effect) to 100 (complete control)
  Plant response rating, Oat, Wild: 0
oat, wild; 125 g ai/ha, scale 0 to 100 (0 no effect, 100 complete control)
  Plant response rating, Oat, Wild: 0
oat, wild; 250 g ai/ha, scale 0 to 100 (0 no effect, 100 complete control)
  Plant response rating, Oat, Wild: 5
velvetleaf; [7]
  Plant response rating, Velvetleaf: 5
velvetleaf; [8]
  Plant response rating, Velvetleaf: 10
velvetleaf; [9]
  Plant response rating, Velvetleaf: 10
velvetleaf; [10]
  Plant response rating, Velvetleaf: 50
velvetleaf; [11]
  Velvetleaf plant response rating: 0
velvetleaf; [12]
  Velvetleaf plant response rating: 0
velvetleaf; [13]
  Plant response rating, Velvetleaf: 25
velvetleaf; Preemergence, 250 g ai/ha
  Plant response rating (scale of 0 to 100), Velvetleaf: 30
